{
  "source": "ChEMBL document CHEMBL4229381",
  "about": "“New cytokinin derivatives possess UVA and UVB photoprotective effect on human skin cells and prevent oxidative stress” (Eur J Med Chem, 2018)",
  "key": {"[1]": {"assay": "Phototoxicity in human NHDF cells assessed as cell viability at 15.6 uM preincubated for 60 mins followed by 5 J/cm2 UVA irradiation and measured after 24 hrs by neutral red uptake assay relative to control", "assay_type": "cell-based", "conditions": "read-out: Activity"}, "[2]": {"assay": "Cytotoxicity in human NHDF cells assessed as cell viability at 15.6 uM after 24 hrs by neutral red uptake assay relative to control", "assay_type": "cell-based", "conditions": "read-out: Activity"}, "NHDF [3]": {"tested_on": "NHDF", "assay": "Cytoprotection against phototoxicity in human NHDF cells assessed as increase in cell viability at 3.9 to 31.3 uM preincubated for 60 mins followed by 150 mJ/cm2 UVB irradiation and measured after 24 hrs by neutral red uptake assay", "assay_type": "functional, cell-based"}, "[4]": {"assay": "Phototoxicity in human NHDF cells assessed as cell viability at 62.5 uM preincubated for 60 mins followed by 5 J/cm2 UVA irradiation and measured after 24 hrs by neutral red uptake assay relative to control", "assay_type": "cell-based", "conditions": "read-out: Activity"}, "[5]": {"assay": "Cytotoxicity in human NHDF cells assessed as cell viability at 125 uM after 24 hrs by neutral red uptake assay relative to control", "assay_type": "cell-based", "conditions": "read-out: Activity"}, "NHDF [6]": {"tested_on": "NHDF", "assay": "Potency index, ratio of compound effect to rosmarinic acid effect for cytoprotection against phototoxicity in human NHDF cells assessed as increase in cell viability at 3.9 uM preincubated for 60 mins followed by 7.5 J/cm2 UVA irradiation and measured after 24 hrs by neutral red uptake assay", "assay_type": "functional"}, "[7]": {"assay": "Stability of the compound in pH 5 solution at 10^-4 M after 24 hrs by HPLC analysis", "assay_type": "physicochemical", "conditions": "read-out: Stability"}, "[8]": {"assay": "Stability of the compound in pH 4 solution at 10^-4 M after 1 hr by HPLC analysis", "assay_type": "physicochemical", "conditions": "read-out: Stability"}, "HaCaT [9]": {"tested_on": "HaCaT", "assay": "Cytoprotection against phototoxicity in human HaCaT cells assessed as increase in cell viability at 3.9 uM preincubated for 60 mins followed by 10 J/cm2 UVA irradiation and measured after 24 hrs by neutral red uptake assay", "assay_type": "functional, cell-based"}, "NHDF [10]": {"tested_on": "NHDF", "assay": "Cytoprotection against phototoxicity in human NHDF cells assessed as increase in cell viability at 3.9 to 31.3 uM preincubated for 60 mins followed by 7.5 J/cm2 UVA irradiation and measured after 24 hrs by neutral red uptake assay", "assay_type": "functional, cell-based"}, "[11]": {"assay": "Stability of the compound in pH 4 solution at 10^-4 M after 24 hrs by HPLC analysis", "assay_type": "physicochemical", "conditions": "read-out: Stability"}, "[12]": {"assay": "Cytotoxicity in human NHDF cells assessed as cell viability at 31.3 uM after 24 hrs by neutral red uptake assay relative to control", "assay_type": "cell-based", "conditions": "read-out: Activity"}, "[13]": {"assay": "Phototoxicity in human NHDF cells assessed as cell viability at 31.3 uM preincubated for 60 mins followed by 5 J/cm2 UVA irradiation and measured after 24 hrs by neutral red uptake assay relative to control", "assay_type": "cell-based", "conditions": "read-out: Activity"}, "[14]": {"assay": "Stability of the compound in pH 6 solution at 10^-4 M after 1 hr by HPLC analysis", "assay_type": "physicochemical", "conditions": "read-out: Stability"}, "[15]": {"assay": "Phototoxicity in human HaCaT cells assessed as cell viability at 31.3 uM preincubated for 60 mins followed by 7.5 J/cm2 UVA irradiation and measured after 24 hrs by neutral red uptake assay relative to control", "assay_type": "cell-based", "conditions": "read-out: Activity"}, "Amaranthus caudatus": {"tested_on": "Amaranthus caudatus", "assay": "Growth promoting activity in Amaranthus caudatus var. atropurpurea seeds by measuring betacyanin at 10^-4 mol/L after 48 hrs relative to control", "assay_type": "functional"}, "[16]": {"assay": "Cytotoxicity in human NHDF cells assessed as cell viability at 62.5 uM after 24 hrs by neutral red uptake assay relative to control", "assay_type": "cell-based", "conditions": "read-out: Activity"}, "Triticum aestivum": {"tested_on": "Triticum aestivum", "assay": "Anti-senescent activity in leaf of Triticum aestivum cv. Hereward seedlings by measuring chlorophyll retention at 10^-4 mol/L after 4 days relative to control", "assay_type": "functional"}, "HaCaT [17]": {"tested_on": "HaCaT", "assay": "Cytoprotection against phototoxicity in human HaCaT cells assessed as increase in cell viability at 3.9 to 31.3 uM preincubated for 60 mins followed by 10 J/cm2 UVA irradiation and measured after 24 hrs by neutral red uptake assay", "assay_type": "functional, cell-based"}, "HaCaT [18]": {"tested_on": "HaCaT", "assay": "Potency index, ratio […] for cytoprotection against phototoxicity in human HaCaT cells assessed as increase in cell viability at 3.9 preincubated for 60 mins followed by 150 mJ/cm2 UVB irradiation and measured after 24 hrs by neutral red uptake assay", "assay_type": "functional"}, "HaCaT [19]": {"tested_on": "HaCaT", "assay": "Potency index, ratio of compound effect to rosmarinic acid effect for cytoprotection against phototoxicity in human HaCaT cells assessed as increase in cell viability at 3.9 uM preincubated for 60 mins followed by 10 J/cm2 UVA irradiation and measured after 24 hrs by neutral red uptake assay", "assay_type": "functional"}, "[20]": {"assay": "Phototoxicity in human HaCaT cells assessed as cell viability at 7.8 uM preincubated for 60 mins followed by 7.5 J/cm2 UVA irradiation and measured after 24 hrs by neutral red uptake assay relative to control", "assay_type": "cell-based", "conditions": "read-out: Activity"}, "NHDF [21]": {"tested_on": "NHDF", "assay": "Cytoprotection against phototoxicity in human NHDF cells assessed as increase in cell viability at 3.9 uM preincubated for 60 mins followed by 7.5 J/cm2 UVA irradiation and measured after 24 hrs by neutral red uptake assay", "assay_type": "functional, cell-based"}, "[22]": {"assay": "Cytotoxicity in human NHDF cells assessed as cell viability at 7.8 uM after 24 hrs by neutral red uptake assay relative to control", "assay_type": "cell-based", "conditions": "read-out: Activity"}, "[23]": {"assay": "Cytotoxicity in human HaCaT cells assessed as cell viability at 62.5 uM after 24 hrs by neutral red uptake assay relative to control", "assay_type": "cell-based", "conditions": "read-out: Activity"}, "NHDF [24]": {"tested_on": "NHDF", "assay": "Cytoprotection against phototoxicity in human NHDF cells assessed as increase in cell viability at 31.3 uM preincubated for 60 mins followed by 150 mJ/cm2 UVB irradiation and measured after 24 hrs by neutral red uptake assay", "assay_type": "functional, cell-based"}, "Caenorhabditis elegans": {"tested_on": "Caenorhabditis elegans", "assay": "Protection against juglone-induced oxidative stress in Caenorhabditis elegans BA17 (fem-1) at 100 uM preincubated for 3 days followed by juglone addition measured every hour for 12 ro 14 hrs by inverted microscopic analysis", "assay_type": "functional, organism-based"}, "[25]": {"assay": "Cytotoxicity in human HaCaT cells assessed as cell viability at 125 uM after 24 hrs by neutral red uptake assay relative to control", "assay_type": "cell-based", "conditions": "read-out: Activity"}, "[26]": {"assay": "Phototoxicity in human NHDF cells assessed as cell viability at 3.9 uM preincubated for 60 mins followed by 5 J/cm2 UVA irradiation and measured after 24 hrs by neutral red uptake assay relative to control", "assay_type": "cell-based", "conditions": "read-out: Activity"}, "[27]": {"assay": "Phototoxicity in human HaCaT cells assessed as cell viability at 15.6 uM preincubated for 60 mins followed by 7.5 J/cm2 UVA irradiation and measured after 24 hrs by neutral red uptake assay relative to control", "assay_type": "cell-based", "conditions": "read-out: Activity"}, "HaCaT [28]": {"tested_on": "HaCaT", "assay": "Cytotoxicity in human HaCaT cells assessed as reduction in cell viability at 50 uM after 24 hrs by resazurin dye-based fluorescence assay relative to control"}, "[29]": {"assay": "Phototoxicity in human NHDF cells assessed as cell viability at 125 uM preincubated for 60 mins followed by 5 J/cm2 UVA irradiation and measured after 24 hrs by neutral red uptake assay relative to control", "assay_type": "cell-based", "conditions": "read-out: Activity"}, "Nicotiana tabacum": {"tested_on": "Nicotiana tabacum", "assay": "Growth promoting activity in tobacco callus assessed as callus weight at 10^-5 mol/L after 4 weeks relative to control", "assay_type": "functional"}, "[30]": {"assay": "Stability of the compound in pH 5 solution at 10^-4 M after 1 hr by HPLC analysis", "assay_type": "physicochemical", "conditions": "read-out: Stability"}, "[31]": {"assay": "Cytotoxicity in human HaCaT cells assessed as cell viability at 3.9 uM after 24 hrs by neutral red uptake assay relative to control", "assay_type": "cell-based", "conditions": "read-out: Activity"}, "[32]": {"assay": "Phototoxicity in human HaCaT cells assessed as cell viability at 125 uM preincubated for 60 mins followed by 7.5 J/cm2 UVA irradiation and measured after 24 hrs by neutral red uptake assay relative to control", "assay_type": "cell-based", "conditions": "read-out: Activity"}},
  "note": "Active and inactive are the calls of the source. No cut-off for these calls is given here.",
  "data": [
    {"compound": "c1csc(CNc2ncnc3c2ncn3C2CCCO2)c1", "note": "(stereo unspecified)", "values": [
      {"measurement": "viability at 24 h, 15.6 µM", "setting": "[1]", "result": 101, "unit": "%"},
      {"measurement": "viability at 24 h, 15.6 µM", "setting": "[2]", "result": 100, "unit": "%"},
      {"measurement": "Activity", "setting": "NHDF [3]", "result": "Active"},
      {"measurement": "viability at 24 h, 62.5 µM", "setting": "[4]", "result": 103, "unit": "%"},
      {"measurement": "viability at 24 h, 125 µM", "setting": "[5]", "result": 108, "unit": "%"},
      {"measurement": "Ratio", "setting": "NHDF [6]", "result": ">6"},
      {"measurement": "remaining at 24 h, 100 µM", "setting": "[7]", "result": 94.2, "unit": "%"},
      {"measurement": "remaining at 1 h, 100 µM", "setting": "[8]", "result": 99.4, "unit": "%"},
      {"measurement": "Activity", "setting": "HaCaT [9]", "result": "Active"},
      {"measurement": "Activity", "setting": "NHDF [10]", "result": "Active"},
      {"measurement": "remaining at 24 h, 100 µM", "setting": "[11]", "result": 52.1, "unit": "%"},
      {"measurement": "viability at 24 h, 31.3 µM", "setting": "[12]", "result": 107, "unit": "%"},
      {"measurement": "viability at 24 h, 31.3 µM", "setting": "[13]", "result": 106, "unit": "%"},
      {"measurement": "remaining at 1 h, 100 µM", "setting": "[14]", "result": 100, "unit": "%"},
      {"measurement": "viability at 24 h, 31.3 µM", "setting": "[15]", "result": 128, "unit": "%"},
      {"measurement": "Activity", "setting": "Amaranthus caudatus", "result": 81, "unit": "%"},
      {"measurement": "viability at 24 h, 62.5 µM", "setting": "[16]", "result": 108, "unit": "%"},
      {"measurement": "Activity", "setting": "Triticum aestivum", "result": 102, "unit": "%"},
      {"measurement": "Activity", "setting": "HaCaT [17]", "result": "Active"},
      {"measurement": "Ratio", "setting": "HaCaT [18]", "result": ">2"},
      {"measurement": "Ratio", "setting": "HaCaT [19]", "result": 3},
      {"measurement": "viability at 24 h, 7.8 µM", "setting": "[20]", "result": 124, "unit": "%"},
      {"measurement": "Activity", "setting": "NHDF [21]", "result": "Active"},
      {"measurement": "viability at 24 h, 7.8 µM", "setting": "[22]", "result": 103, "unit": "%"},
      {"measurement": "viability at 24 h, 62.5 µM", "setting": "[23]", "result": 104, "unit": "%"},
      {"measurement": "Activity", "setting": "NHDF [24]", "result": "Active"},
      {"measurement": "Activity", "setting": "Caenorhabditis elegans", "result": "Active"},
      {"measurement": "viability at 24 h, 125 µM", "setting": "[25]", "result": 103, "unit": "%"},
      {"measurement": "viability at 24 h, 3.9 µM", "setting": "[26]", "result": 98, "unit": "%"},
      {"measurement": "viability at 24 h, 15.6 µM", "setting": "[27]", "result": 121, "unit": "%"},
      {"measurement": "Activity", "setting": "HaCaT [28]", "result": "< 10", "unit": "%"},
      {"measurement": "viability at 24 h, 125 µM", "setting": "[29]", "result": 106, "unit": "%"},
      {"measurement": "Activity", "setting": "Nicotiana tabacum", "result": 105, "unit": "%"},
      {"measurement": "remaining at 1 h, 100 µM", "setting": "[30]", "result": 100, "unit": "%"},
      {"measurement": "viability at 24 h, 3.9 µM", "setting": "[31]", "result": 101, "unit": "%"},
      {"measurement": "viability at 24 h, 125 µM", "setting": "[32]", "result": 127, "unit": "%"}
    ]}
  ]
}
